Measured values published in US7314953B2, “Treatment of lung cells with histone deacetylase inhibitors” (Errant Gene Therapeutics, LLC, priority 2001, dated 2008).

Tests used:
CF HBE cells [1] = experiment: Short circuit current (Ussing chamber), anion secretion in CF HBE cells; assay type: cell-based, human
Description: (§1) Studies were carried out using human bronchial epithelial (HBE) cells derived from five cystic fibrosis (CF) patients and five nonCF patients. The protocol is described in Devor, D. C. et al., “Pharmacological modulation of ion transport across wild-type and DeltaF508 CFTR-expressing human bronchial epithelia,” Am. J. Physiol. 279: C461-C479, 2000.
(§2) Cells were isolated and grown on filters for short circuit current (Isc) studies. Cells were mounted in modified Ussing chambers and the Isc monitored. The change in Isc in response to amiloride (10 μM) was taken as a measure of net electrogenic sodium transport after equilibration for 20 minutes. Forskolin (2 μM), UTP (100 μM), and genistein (30 μM) were used to stimulate anion secretion. Results from 6 to 12 similar experiments were obtained.
[…] Cells were fed every 24 hours with fresh media containing the compound. Control cells received an equivalent amount of vehicle (DMSO). Short circuit current measurements were also made on T84 cells, a human colonic epithethial cell line that secretes chloride by a CFTR mediated mechanism, and on M1 cells, a mouse kidney cell line that absorbs sodium by an ENaC mediated mechanism.

non-CF HBE cells [2] = experiment: Short circuit current (Ussing chamber), forskolin stimulated anion secretion in non-CF HBE cells derived from COPD patients; assay type: cell-based, human; conditions: non-CF HBE cells
Description: as §1, §2
(§3) 7-Phenyl-2,4,6-heptatrienoylhydroxamic acid ([…]) was added to the culture medium and the cells were incubated for 24, 48, and 72 hours. Cells were fed every 24 hours with fresh media containing the compound. Control cells received an equivalent amount of vehicle (DMSO). Short circuit current measurements were also made on T84 cells, a human colonic epithethial cell line that secretes chloride by a CFTR mediated mechanism, and on M1 cells, a mouse kidney cell line that absorbs sodium by an ENaC mediated mechanism.
(§4) Table 3 sumarizes the results of treating non-CF cells derived from COPD patients with 30 μM 7-phenyl-2,4,6-heptatrienoylhydroxamic acid for 72 hours. Electrogenic sodium transport was estimated from the amiloride (5 μM) sensitive short circuit current. Anion secretion was estimated from the forskolin (2 μM) stimulated short circuit current after the addition of amiloride. The treatment of cells with 30 μM 7-phenyl-2,4,6-heptatrienoylhydroxamic acid for 72 hours caused an inhibition in the amiloride sensitive sodium transport of nearly 80%. This effect was concentration and dose dependent with a half-maximal inhibition concentration of 13 μM±3 μM and a half-maximal inhibition at 24 hours.

CF HBE cells [3] = experiment: Short circuit current (Ussing chamber), electrogenic sodium transport in CF HBE cells; assay type: cell-based, human; conditions: 1 to 3 mM, 24 to 72 hours
non-CF HBE cells [4] = experiment: Short circuit current (Ussing chamber), electrogenic sodium transport in non-CF HBE cells derived from COPD patients; assay type: cell-based, human; conditions: non-CF HBE cells
Description: as §1, §2, §3, §4

ΔF508 CFTR [5] = experiment: Cystic fibrosis screening assay: CFTR immunoprecipitation, quantitation of Bands B and C, ΔF508 CFTR CHO cells; assay type: cell-based, Chinese hamster; conditions: 100 μM, 24 hours
Source text: As described above, during its biosynthesis, CFTR is initially synthesized as a nascent polypeptide chain in the rough ER, with a molecular weight of around 120 kDa (Band A). It rapidly receives a core glycosylation in the ER, giving it a molecular weight of around 140 kDa (Band B). As CFTR exits the ER and matures through the Golgi stacks, its glycosylation is modified until it achieves a terminal mature glycosylation, affording it a molecular weight of around 170 kDa (Band C). The extent to which CFTR exits the ER and traverses the Golgi to reach the plasma membrane may be reflected in the ratio of Band B to Band C protein. CFTR was immunoprecipitated from control cells and cells exposed to test compounds. Both wt CFTR and ΔF508 CFTR expressing cells were tested. Following lysis, CFTR was immunoprecipitated using various CFTR antibodies. Immunoprecipitates were then subjected to in vitro phosphorylation using radioactive ATP and exogenous protein kinase A. Samples were subsequently solubilized and resolved by SDS-PAGE. Gels were then dried and subject to autoradiography and phosphor image analysis for quantitation of Bands B and C as determined on a BioRad personal fix image station.
(§5) Chinese hamster ovary (CHO) cells stably expressing both wt and ΔF508 CFTR were used in these assays. The cultures were grown on 100 mm plastic cell dishes in DMEM containing 10% foetal bovine serum (FBS) and kept at 5% CO2/95% O2 at 37° C. Cells were grown to confluence and used 3-5 days post-plating. Compounds of formula (I) were added to cells for 24 hours prior to analysis.
Cells were treated with test compounds and CFTR immunoprecipitated as described in Bradbury et al., Am. J. Physiol. 276, L659-668 (1999). Briefly, treated cells were lysed in buffer containing 1% TRITON X-100 and various protease inhibitors. Soluble material was immunoprecipitated using both R domain and C-terminal monoclonal antibodies. Immunoprecipitated CFTR was then subject to in vitro phosphorylation using camp-dependent PKA catalytic subunit and [γ-^32P]ATP, followed by resolution on SDS-PAGE gels. After fixation, the gels were dried and processed for autoradiography and phosphor image analysis. Quantitation of B and C bands was determined on a BioRad personal fix image analysis station.

cell surface CFTR = experiment: Cell surface biotinylation, CFTR expressed at the cell surface of CHO cells; assay type: cell-based, Chinese hamster
Description: as §5, with “All test compounds” for “Compounds of formula (I)”
(§6) For most studies, compounds of formula (I) were applied to the cells for 72 hours, with fresh media and drug applied every 24 hours. Compounds of formula (I) were dissolved in DMSO at a stock concentration of 20 mM.
To assess cell surface expression, a cell surface biotinylation protocol was employed. A faint band for band B CFTR was detectable at the cell surface for wild-type CFTR. […] Only an increase in band B CFTR was observed. […] Both 5-phenyl-2,4-pentadienoylhydroxamic acid and 7-phenyl-2,4,6-heptatrienoylhydroxamic acid increase cellular CFTR and expression of CFTR at the cell surface.

ΔF508 CFTR [6] = experiment: Immunoblot analysis of total cellular CFTR in CHO cells stably transfected with ΔF508 CFTR; assay type: cell-based, Chinese hamster; conditions: ΔF508 CFTR CHO cells
Description: as §5, with “All test compounds” for “Compounds of formula (I)”
as §6
At a concentration of 100 μM, the amount of band B increased with no change in band C.

Compound | anion secretion (CF HBE cells [1]) | increase in anion secretion (non-CF HBE cells [2]) | increase in sodium transport (CF HBE cells [3]) | increase in sodium transport (non-CF HBE cells [4]) | % Band B relative to non-treated cells (mean + SEM) n = 4 (ΔF508 CFTR [5]) | % Band C relative to non-treated cells (mean + SEM) n = 4 (ΔF508 CFTR [5]) | effect on cell surface CFTR expression (comparison of the two hydroxamic acids) (cell surface CFTR) | amount of CFTR expressed at the cell surface (cell surface CFTR; cell surface biotinylation, only band B increased) | band B CFTR (ΔF508 CFTR [6]; 60 μM) | band C CFTR (ΔF508 CFTR [6]; 60 μM) | band B CFTR (ΔF508 CFTR [6]; 100 μM)
O=C(O)CCCc1ccccc1 [4-phenyl butyrate, reference compound] | failed to increase | 2 fold | 3 fold | 3 fold | – | – | – | – | – | – | –
O=C(O)C=CC=Cc1ccccc1 [5-phenyl-2,4-pentadienoic acid, reference compound] | – | – | – | – | 93.2 ± 11.25% | 98.47 ± 10.25% | – | – | – | – | –
O=C(C=CC=Cc1ccccc1)NO [5-phenyl-2,4-pentadienoylhydroxamic acid] | – | – | – | – | 635.2 ± 15.4% | 110.16 ± 5.20% | greater effect | dose-dependent increase | increased | not band C | proportionate increase
